# In publication PMC2920140 (Inorganic chemistry, 2010):
# Target: T1, CLOCK PAS–A (murine CLOCK PAS-A domain, mCLOCK) (Mus musculus, UniProt O08785)
# T1 sequence (O08785 103-265): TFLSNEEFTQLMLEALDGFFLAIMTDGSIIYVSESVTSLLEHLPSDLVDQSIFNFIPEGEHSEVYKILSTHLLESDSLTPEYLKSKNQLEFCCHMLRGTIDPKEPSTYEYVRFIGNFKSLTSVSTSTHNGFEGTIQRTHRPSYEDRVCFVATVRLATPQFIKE
# Assay: UV-visible spectrophotometric titration, global nonlinear least squares fit
# Assay type: binding
smiles,measurement,value
C=CC1=C(C)C2=Cc3c(C=C)c(C)c4[n]3[Fe]([Cl])[n]3c(c(C)c(CCC(=O)O)c3=CC3=NC(=C4)C(C)=C3CCC(=O)O)=CC1=N2 [hemin],Kd,1050 nM
